The values that follow come from US20160237499A1, “Genetic Markers for Antipsychotic Induced Weight Gain and Methods for Use Thereof” (CENTRE FOR ADDICTION AND MENTAL HEALTH, priority 2013, published 2016).

For series [1] the following is noted: administered into the parabrachial nucleus in the brainstem; cited from earlier work.
Series [2] in a line: Percentage weight change in antipsychotic-treated schizophrenia patients. The format is in vivo, human. The conditions noted are these: Sample B (N = 56), SCZ patients of European ancestry receiving clozapine; study duration 6.00 ± 0.00 weeks; mean ± SD. As for the experimental part: In total, 160 participants with psychotic symptoms were included in this study. Diagnosis for schizophrenia (SCZ) was assessed by the Structured Diagnostic Interviews for DSM-IIIR and/or DSM-IV diagnoses (SCID-I,^31,32), except for sample A where diagnoses were based on an interview assessing both DSM and ICD diagnoses. The inclusion criteria for adult probands were DSM-IIIR/IV diagnosis of SCZ or schizoaffective disorder, with psychotic symptoms. A written informed consent was obtained after the complete study description was given to each participant, and the study has been approved by the Research Ethics Board.
Sample A (N=93) was collected at the Charité University Medicine, Berlin, Germany. […] Clozapine serum levels were monitored during the course of the treatment to ascertain compliance. Clinical response was assessed after 6 weeks using the Brief Psychiatric Rating Scale (BPRS)^35. […]
Statistical analyses of demographic variables, which included sex, age at recruitment, and duration of treatment, were performed across samples using Fisher's Exact tests, analysis of variance, or Kruskal-Wallis tests (Table 1). […] We also analyzed the ‘percent weight change’ variable in a meta-analytic approach to take into account heterogeneity across the three patient sample groups using STATA version 8 (e.g.,^48). […] Linkage disequilibrium and r^2 between marker pairs as determined by Haploview 4.1^49. […]

For series [3] the following is noted: patients treated with second-generation antipsychotics; cited from earlier work.

As for `Cn1ncnc1COc1nn2c(-c3cc(F)ccc3F)nnc2cc1C(C)(C)C` [L-838417], the food intake result in series [1] was “increased food intake”.
In turn, `CN1CCN(C2=Nc3cc(Cl)ccc3Nc3ccccc32)CC1` [clozapine] had a Percentage weight change in series [2] of 3.88 ± 5.770.
Consider `Cc1ncc2n1-c1ccc(Cl)cc1C(c1ccccc1F)=NC2` [midazolam], for which, in series [1], the food intake entry is given as “increased food intake”.
For the compound `Cc1cc2c(s1)Nc1ccccc1N=C2N1CCN(C)CC1` [olanzapine], the “treated patients experiencing significant weight gain” value in series [3] is given as “about 30%”.
